# Legend:
# [1] = tested on: MEXF 394NL; assay: Monolayer proliferation assay (modified propidium iodide), MEXF 394NL; format: cell-based, human; conditions: average of 2 experiments
# Method: (§1) In vitro evaluation of compounds for anticancer activity in a panel of human tumour cell lines in a monolayer proliferation assay was carried out at the Oncotest Testing Facility, Institute for Experimental Oncology, Oncotest GmbH, Freiburg.
# (§2) The Oncotest cell lines are established from human tumor xenografts as described by Roth et al., (1999). The origin of the donor xenografts is described by Fiebig et al., (1999). Other cell lines are either obtained from the NCl (DU145, MCF-7) or purchased from DSMZ, Braunschweig, Germany.
# (§3) All cell lines, unless otherwise specified, are grown at 37° C. in a humidified atmosphere (95% air, 5% CO2) in a ‘ready-mix’ medium containing RPMI 1640 medium, 10% fetal calf serum, and 0.1 mg/mL gentamicin (PAA, Cölbe, Germany).
# (§4) A modified propidium iodide assay was used to assess the effects of the test compound(s) on the growth of six human tumour cell lines (Dengler et al., (1995)).
# (§5) Briefly, cells are harvested from exponential phase cultures by trypsinization, counted and plated in 96 well flat-bottomed microtitre plates at a cell density dependent on the cell line (5-10.000 viable cells/well). After 24 h recovery to allow the cells to resume exponential growth, 0.010 mL of culture medium (6 control wells per plate) or culture medium containing macbecin were added to the wells. Each concentration is plated in triplicate. Compounds were applied in two concentrations (0.001 mM and 0.01 mM). Following 4 days of continuous exposure, cell culture medium with or without test compound was replaced by 0.2 mL of an aqueous propidium iodide (P1) solution (7 mg/L). To measure the proportion of living cells, cells were permeabilized by freezing the plates. After thawing the plates, fluorescence was measured using the Cytofluor 4000 microplate reader (excitation 530 nm, emission 620 nm), giving a direct relationship to the total number of viable cells.
# (§6) Growth inhibition is expressed as treated/control×100 (% T/C).
# (§7) In vitro evaluation of the test compound, 20, for anticancer activity in a panel of human tumour cell lines in a monolayer proliferation assay was carried out as described in the general methods using a modified propidium iodide assay.
# [2] = tested on: panel of human tumour cell lines; assay: Monolayer proliferation assay, mean across cell line panel; format: cell-based; conditions: geometric mean of all replicates across six cell lines
# Method: as §1, §2, §3, §4
# Briefly, cells are harvested from exponential phase cultures by trypsinization, counted and plated in 96 well flat-bottomed microtitre plates at a cell density dependent on the cell line (5-10.000 viable cells/well). […] After thawing the plates, fluorescence was measured using the Cytofluor 4000 microplate reader (excitation 530 nm, emission 620 nm), giving a direct relationship to the total number of viable cells.
# Growth inhibition is expressed as treated/control×100 (% T/C). […]
# [3] = tested on: CXF HT29; assay: Monolayer proliferation assay (modified propidium iodide), CXF HT29; format: cell-based, human; conditions: average of 2 experiments
# Method: as §1, §2, §3, §4, §5, §6, §7
# [4] = tested on: CNXF 498NL; assay: Monolayer proliferation assay (modified propidium iodide), CNXF 498NL; format: cell-based, human; conditions: average of 2 experiments
# Method: as §1, §2, §3, §4
# as §5, with “Compounds were applied in two concentrations (0.001 mM and 0.01 mM).” left out
# as §6, §7
smiles,measurement,setting,value
"CO[C@H]1C[C@H](C)Cc2cc(cc(OP(=O)(O)O)c2)NC(=O)/C(C)=C/CC[C@H](C)[C@@H](OC(N)=O)/C(C)=C/[C@H](C)[C@H]1O [Compound 20, 4,5-dihydro-11-O-demethyl-15-demethoxy-18,21-didehydro-21-deoxomacbecin-18-phosphate]",Test/Control (%) at drug concentration (μg/mL),[1]; 0.01 μg/mL,102%
same,Test/Control (%) at drug concentration (μg/mL),[1]; 0.1 μg/mL,50%
same,Test/Control (%) at drug concentration (μg/mL),[1]; 1 μg/mL,17%
same,Test/Control (%) at drug concentration (μg/mL),[1]; 10 μg/mL,16%
same,Test/Control (%) at drug concentration (μg/mL),[1]; 100 μg/mL,3%
same,average IC70 value across the cell-line panel,[2],0.344 µg/mL
same,Test/Control (%) at drug concentration (μg/mL),"[3]; CXF HT29, 0.01 μg/mL",112%
same,Test/Control (%) at drug concentration (μg/mL),"[3]; CXF HT29, 0.1 μg/mL",43%
same,Test/Control (%) at drug concentration (μg/mL),"[3]; CXF HT29, 1 μg/mL",7%
same,Test/Control (%) at drug concentration (μg/mL),"[3]; CXF HT29, 10 μg/mL",7%
same,Test/Control (%) at drug concentration (μg/mL),"[3]; CXF HT29, 100 μg/mL",5%
same,Test/Control (%) at drug concentration (μg/mL),[4]; 0.01 μg/mL,99%
same,Test/Control (%) at drug concentration (μg/mL),[4]; 0.1 μg/mL,77%
same,Test/Control (%) at drug concentration (μg/mL),[4]; 1 μg/mL,15%
same,Test/Control (%) at drug concentration (μg/mL),[4]; 10 μg/mL,16%
same,Test/Control (%) at drug concentration (μg/mL),[4]; 100 μg/mL,12%
